{"source": "ChEMBL document CHEMBL3808308", "about": "“Synergistic potentiation of (-)-lomaiviticin A cytotoxicity by the ATR inhibitor VE-821” (Bioorg Med Chem Lett, 2016)", "key": {"K562 [1]": {"test_system": "K562", "test": "Potentiation of 2.5 nM (-)-lomaiviticin A-induced cytotoxicity against human K562 cells assessed as combination index at 10 uM after 48 hrs by cell titer-glo luminescence assay", "format": "functional"}, "K562 [2]": {"test_system": "K562", "test": "Potentiation of 500 pM (-)-lomaiviticin A-induced cytotoxicity against human K562 cells assessed as decrease in cell viability at 10 uM after 48 hrs by cell titer-glo luminescence assay", "format": "functional"}, "K562 [3]": {"test_system": "K562", "test": "Potentiation of 2.5 nM (-)-lomaiviticin A-induced cytotoxicity against human K562 cells assessed as combination index at 10 uM after 24 hrs by cell titer-glo luminescence assay", "format": "functional"}, "K562 [4]": {"test_system": "K562", "test": "Cytotoxicity against human K562 cells assessed as decrease in cell viability up to 10 uM after 24 to 48 hrs by cell titer-glo luminescence assay", "format": "cell-based"}, "K562 [5]": {"test_system": "K562", "test": "Potentiation of 50 pM (-)-lomaiviticin A-induced cytotoxicity against human K562 cells assessed as decrease in cell viability at 10 uM after 48 hrs by cell titer-glo luminescence assay", "format": "functional"}, "K562 [6]": {"test_system": "K562", "test": "Potentiation of 0.25 nM (-)-lomaiviticin A-induced cytotoxicity against human K562 cells assessed as combination index at 10 uM after 48 hrs by cell titer-glo luminescence assay", "format": "functional"}, "K562 [7]": {"test_system": "K562", "test": "Potentiation of 5 nM (-)-lomaiviticin A-induced cytotoxicity against human K562 cells assessed as combination index at 10 uM after 24 hrs by cell titer-glo luminescence assay", "format": "functional"}, "K562 [8]": {"test_system": "K562", "test": "Potentiation of 0.5 nM (-)-lomaiviticin A-induced cytotoxicity against human K562 cells assessed as fraction ratio affected at 10 uM after 24 hrs by cell titer-glo luminescence assay", "format": "functional"}, "K562 [9]": {"test_system": "K562", "test": "Potentiation of 0.025 nM (-)-lomaiviticin A-induced cytotoxicity against human K562 cells assessed as fraction ratio affected at 10 uM after 48 hrs by cell titer-glo luminescence assay", "format": "functional"}, "K562 [10]": {"test_system": "K562", "test": "Potentiation of 2.5 nM (-)-lomaiviticin A-induced cytotoxicity against human K562 cells assessed as fraction ratio affected at 10 uM after 24 hrs by cell titer-glo luminescence assay", "format": "functional"}, "K562 [11]": {"test_system": "K562", "test": "Potentiation of 0.05 nM (-)-lomaiviticin A-induced cytotoxicity against human K562 cells assessed as fraction ratio affected at 10 uM after 48 hrs by cell titer-glo luminescence assay", "format": "functional"}, "K562 [12]": {"test_system": "K562", "test": "Potentiation of 0.5 nM (-)-lomaiviticin A-induced cytotoxicity against human K562 cells assessed as combination index at 10 uM after 24 hrs by cell titer-glo luminescence assay", "format": "functional"}, "K562 [13]": {"test_system": "K562", "test": "Potentiation of 0.25 nM (-)-lomaiviticin A-induced cytotoxicity against human K562 cells assessed as fraction ratio affected at 10 uM after 24 hrs by cell titer-glo luminescence assay", "format": "functional"}, "K562 [14]": {"test_system": "K562", "test": "Potentiation of 0.25 nM (-)-lomaiviticin A-induced cytotoxicity against human K562 cells assessed as combination index at 10 uM after 24 hrs by cell titer-glo luminescence assay", "format": "functional"}, "K562 [15]": {"test_system": "K562", "test": "Potentiation of 5 nM (-)-lomaiviticin A-induced cytotoxicity against human K562 cells assessed as combination index at 10 uM after 48 hrs by cell titer-glo luminescence assay", "format": "functional"}, "K562 [16]": {"test_system": "K562", "test": "Potentiation of 0.025 nM (-)-lomaiviticin A-induced cytotoxicity against human K562 cells assessed as fraction ratio affected at 10 uM after 24 hrs by cell titer-glo luminescence assay", "format": "functional"}, "K562 [17]": {"test_system": "K562", "test": "Potentiation of 5 nM (-)-lomaiviticin A-induced cytotoxicity against human K562 cells assessed as fraction ratio affected at 10 uM after 48 hrs by cell titer-glo luminescence assay", "format": "functional"}, "K562 [18]": {"test_system": "K562", "test": "Induction of DNA double-strand breaks in human K562 cells assessed as median tail moment at 10 uM after 24 hrs by neutral comet assay in presence of 500 pM (-)-lomaiviticin A", "format": "functional"}, "K562 [19]": {"test_system": "K562", "test": "Cytotoxicity against human K562 cells assessed as decrease in cell viability up to 2.5 to 10 uM after 24 to 48 hrs by cell titer-glo luminescence assay", "format": "cell-based"}, "K562 [20]": {"test_system": "K562", "test": "Potentiation of 5 nM (-)-lomaiviticin A-induced cytotoxicity against human K562 cells assessed as fraction ratio affected at 10 uM after 24 hrs by cell titer-glo luminescence assay", "format": "functional"}, "K562 [21]": {"test_system": "K562", "test": "Induction of apoptosis in human K562 cells assessed as gammaH2AX/53BP1 levels at 10 uM after 48 hrs by DAPI staining based immunofluorescence microscopy in presence of 25 to 250 pM (-)-lomaiviticin A", "format": "functional, cell-based"}, "K562 [22]": {"test_system": "K562", "test": "Potentiation of 0.05 nM (-)-lomaiviticin A-induced cytotoxicity against human K562 cells assessed as combination index at 10 uM after 24 hrs by cell titer-glo luminescence assay", "format": "functional"}, "K562 [23]": {"test_system": "K562", "test": "Induction of apoptosis in human K562 cells assessed as gammaH2AX/53BP1 levels at 10 uM after 48 hrs by DAPI staining based immunofluorescence microscopy", "format": "cell-based", "details": "k562, 48 h"}, "K562 [24]": {"test_system": "K562", "test": "Potentiation of 50 pM (-)-lomaiviticin A-induced cytotoxicity against human K562 cells assessed as decrease in cell viability at 10 uM after 24 hrs by cell titer-glo luminescence assay", "format": "functional"}, "K562 [25]": {"test_system": "K562", "test": "Potentiation of 0.05 nM (-)-lomaiviticin A-induced cytotoxicity against human K562 cells assessed as fraction ratio affected at 10 uM after 24 hrs by cell titer-glo luminescence assay", "format": "functional"}, "K562 [26]": {"test_system": "K562", "test": "Potentiation of 0.05 nM (-)-lomaiviticin A-induced cytotoxicity against human K562 cells assessed as combination index at 10 uM after 48 hrs by cell titer-glo luminescence assay", "format": "functional"}, "[27]": {"test": "Cytotoxicity against human K562 cells assessed as decrease in cell viability after 48 hrs by cell titer-glo luminescence assay", "format": "cell-based", "details": "read-out: ED50"}, "[28]": {"test": "Cytotoxicity against human K562 cells assessed as decrease in cell viability after 24 hrs by cell titer-glo luminescence assay", "format": "cell-based", "details": "read-out: ED50"}, "K562 [29]": {"test_system": "K562", "test": "Potentiation of 0.5 nM (-)-lomaiviticin A-induced cytotoxicity against human K562 cells assessed as combination index at 10 uM after 48 hrs by cell titer-glo luminescence assay", "format": "functional"}, "K562 [30]": {"test_system": "K562", "test": "Potentiation of 0.25 nM (-)-lomaiviticin A-induced cytotoxicity against human K562 cells assessed as fraction ratio affected at 10 uM after 48 hrs by cell titer-glo luminescence assay", "format": "functional"}, "K562 [31]": {"test_system": "K562", "test": "Potentiation of 2.5 nM (-)-lomaiviticin A-induced cytotoxicity against human K562 cells assessed as fraction ratio affected at 10 uM after 48 hrs by cell titer-glo luminescence assay", "format": "functional"}, "K562 [32]": {"test_system": "K562", "test": "Potentiation of 0.025 nM (-)-lomaiviticin A-induced cytotoxicity against human K562 cells assessed as combination index at 10 uM after 48 hrs by cell titer-glo luminescence assay", "format": "functional"}, "K562 [33]": {"test_system": "K562", "test": "Potentiation of 0.025 nM (-)-lomaiviticin A-induced cytotoxicity against human K562 cells assessed as combination index at 10 uM after 24 hrs by cell titer-glo luminescence assay", "format": "functional"}, "K562 [34]": {"test_system": "K562", "test": "Induction of DNA double-strand breaks in human K562 cells after 24 hrs by neutral comet assay in presence of (-)-lomaiviticin A", "format": "functional, cell-based"}, "K562 [35]": {"test_system": "K562", "test": "Potentiation of 0.5 nM (-)-lomaiviticin A-induced cytotoxicity against human K562 cells assessed as fraction ratio affected at 10 uM after 48 hrs by cell titer-glo luminescence assay", "format": "functional"}}, "note": "Calls of active or inactive are those of the source. The calls are words filed in the database; no cut-off is given here."}
{"compound": "CS(=O)(=O)c1ccc(-c2cnc(N)c(C(=O)Nc3ccccc3)n2)cc1", "values": [{"measurement": "CI", "setting": "K562 [1]", "value": 0.6223}, {"measurement": "Activity", "setting": "K562 [2]", "value": 96, "unit": "%"}, {"measurement": "CI", "setting": "K562 [3]", "value": 0.4019}, {"measurement": "Activity", "setting": "K562 [4]", "value": "< 13", "unit": "%"}, {"measurement": "Activity", "setting": "K562 [5]", "value": 40, "unit": "%"}, {"measurement": "CI", "setting": "K562 [6]", "value": 0.1058}, {"measurement": "CI", "setting": "K562 [7]", "value": 0.6748}, {"measurement": "Ratio", "setting": "K562 [8]", "value": 0.814}, {"measurement": "Ratio", "setting": "K562 [9]", "value": 0.3737}, {"measurement": "Ratio", "setting": "K562 [10]", "value": 0.8772}, {"measurement": "Ratio", "setting": "K562 [11]", "value": 0.6017}, {"measurement": "CI", "setting": "K562 [12]", "value": 0.09717}, {"measurement": "Ratio", "setting": "K562 [13]", "value": 0.6516}, {"measurement": "CI", "setting": "K562 [14]", "value": 0.06881}, {"measurement": "CI", "setting": "K562 [15]", "value": 1.029}, {"measurement": "Ratio", "setting": "K562 [16]", "value": 0.08806}, {"measurement": "Ratio", "setting": "K562 [17]", "value": 0.9837}, {"measurement": "Activity", "setting": "K562 [18]", "value": 34}, {"measurement": "Activity", "setting": "K562 [19]", "value": "Non-toxic"}, {"measurement": "Ratio", "setting": "K562 [20]", "value": 0.9357}, {"measurement": "Activity", "setting": "K562 [21]", "value": "Active"}, {"measurement": "CI", "setting": "K562 [22]", "value": 0.0774}, {"measurement": "Activity", "setting": "K562 [23]", "value": "Non-toxic"}, {"measurement": "Activity", "setting": "K562 [24]", "value": 18, "unit": "%"}, {"measurement": "Ratio", "setting": "K562 [25]", "value": 0.1819}, {"measurement": "CI", "setting": "K562 [26]", "value": 0.1328}, {"measurement": "CC50 at 48 h", "setting": "[27]", "value": 71, "unit": "µM"}, {"measurement": "CC50 at 24 h", "setting": "[28]", "value": 449, "unit": "µM"}, {"measurement": "CI", "setting": "K562 [29]", "value": 0.1448}, {"measurement": "Ratio", "setting": "K562 [30]", "value": 0.9206}, {"measurement": "Ratio", "setting": "K562 [31]", "value": 0.966}, {"measurement": "CI", "setting": "K562 [32]", "value": 0.2066}, {"measurement": "CI", "setting": "K562 [33]", "value": 0.1138}, {"measurement": "Activity", "setting": "K562 [34]", "value": "Dose-dependent effect"}, {"measurement": "Ratio", "setting": "K562 [35]", "value": 0.961}]}
